A word on the IC50: it is the concentration that gives 50% inhibition.

Where “and” joins values, the source holds several entries; their conditions need not be identical. Identical values can stand only once. Like-named read-outs stand apart in the source and are kept apart here.

3 compounds from article PMC6379637, “Consecutive influenza surveillance of neuraminidase mutations and neuraminidase inhibitor resistance in Japan” (Influenza and Other Respiratory Viruses, 2019) can be followed below.

One experiment concerns the target A/H3N2 neuraminidase. It is filed as biochemical, influenza A/H3N2 virus.
The test system of experiment [1] is influenza B neuraminidase. The format is biochemical, influenza B virus.
In experiment [2] the test system is A/H1N1pdm09 neuraminidase. The format is biochemical, influenza A/H1N1pdm09 virus.
Where [3] appears, read: read-out: IC50 (nM), second column without sub-head (median IC50 value).

As to `CCOC(=O)C1=C[C@@H](OC(CC)CC)[C@H](NC(C)=O)[C@@H](N)C1` [Oseltamivir, oseltamivir phosphate], on A/H3N2 neuraminidase (read-out: median IC50 values), the half-inhibitory concentration (IC50) was 1.1 nM.
On to `CCC(CC)[C@H](NC(C)=O)[C@@H]1[C@H](O)[C@@H](C(=O)O)C[C@H]1N=C(N)N` [Peramivir, peramivir hydrate], for which the IC50 on A/H3N2 neuraminidase (read-out: IC50 (nM), median IC50 value (unheaded second column)) is 1 nM; on A/H3N2 neuraminidase (setting [3]), 0.8 nM; on A/H3N2 neuraminidase (read-out: IC50 (nM), second unheaded column: median IC50 value) it was 0.7 nM; at A/H3N2 neuraminidase (read-out: median IC50 value), 0.7 nM; on A/H3N2 neuraminidase (read-out: median IC50 value (unheaded second column under IC50 (nM))), 0.7 nM; in experiment [1] (read-out: median IC50 values), 2.5 nM and 2.1 nM. Further, the half-maximal inhibitory concentration (IC50) in experiment [2] (read-out: median IC50 values) is 0.3 nM and 0.5 nM and 0.4 nM. In addition, the “Fold change (IC50 / median IC50)” value in experiment [1] is 0.9 and 0.762 and 1.0 and 0.857 and 0.667 and 1.2 and 1.1 and 0.952. The “Fold change (ratio of IC50 to the median IC50 value)” value in experiment [1] is 0.8 and 1.1 and 0.7 and 0.76 and 1.0 and 1.3 and 1.2 and 0.9. In addition, in experiment [2], the “reduced susceptibility class (RI/HRI, WHO criteria)” value is listed as “RI (key: For A viruses, reduced inhibition (RI) was defined as a 10‐fold to 100‐fold increase in IC50 values; highly reduced inhibition (HRI) was defined as more than 100‐fold increase in IC50 values)”.
Take `CC(=O)N[C@H]1[C@H]([C@H](O)[C@H](O)CO)OC(C(=O)O)=C[C@@H]1N=C(N)N` [Zanamivir, zanamivir hydrate]: the results for the half-inhibitory concentration (IC50) at A/H3N2 neuraminidase (setting [3]), at A/H3N2 neuraminidase (read-out: median IC50 value) and on A/H3N2 neuraminidase (read-out: median IC50 values) were 2.2 nM, 1.6 nM and 2.4 nM, respectively.
